Assay results reported in PMC3481155, “AhR activation underlies the CYP1A autoinduction by A-998679 in rats” (Frontiers in Genetics, 2012).
pIC50: −log10 of the molar value.

Key:
Type in all cases: in vitro ADME
rat Cyp 2C12 = molecular target: T1, rat Cyp 2C12 (Rattus norvegicus, UniProt P11510); assay: Recombinant rat Cyp phenotype profiling, 2C12; settings: 60 min
T1 construct: purchased BD Gentest; host or cells: baculovirus infected insect cells
Protocol: (§1) Identification of the drug metabolizing enzymes (DMEs) of A-998679 was studied in cDNA expressed recombinant enzymes prepared from baculovirus infected insect cells over-expressing rat Cyp isoforms (BD Gentest, Woburn, MA) as listed in Table 2. Incubations were conducted in duplicate using Supersomes. The incubation mixture contained 100 pmol/ml of enzymes, except for Cyp1a1 (200 pmol/ml), 0.1 or 0.21 μM of [^3H]A-998679 in 100 mM phosphate buffer (pH 7.4). Reactions were initiated with the addition of NADPH at a final concentration of 1 mM and incubated at 37°C for 60 min. At the end of the incubation period, the incubations were terminated by the addition of acetonitrile/ethanol (50/50, v/v) solution. Insect control samples lacking expressed enzyme were used as negative control. The degree of metabolism of A-998679 was assessed by percent of parent remaining using the radio-HPLC method described below.
(§2) Radiolabeled components from the above assays were profiled following separation by HPLC with on line radioflow detector. The system consisted of an Agilent 1100 Series quaternary pump and autosampler connected to a Packard 500TR flow scintillation detector. The data were processed using the Radiomatic™ Flo-one® software v3.65. The scintillant (Perkin Elmer FLO-SCINT™ III) flow was maintained at 3 ml/min. […]

rat Cyp1a2 = molecular target: T2, rat Cyp1a2 (Rattus norvegicus, UniProt P04799); assay: Recombinant rat Cyp phenotype profiling, 1A2; settings: 60 min
T2 construct: purchased BD Gentest; host or cells: baculovirus infected insect cells
Protocol: as §1, §2

CYP2D6 = molecular target: T3, CYP2D6 (Homo sapiens, UniProt P10635); assay: CYP inhibition evaluation in human liver microsomes, CYP2D6 (dextromethorphan); settings: probe substrate dextromethorphan
T3 construct: from tissue; host or cells: human liver microsomes
Protocol: Incubations were performed in human liver microsomes using probe substrate concentrations similar to their corresponding Km values. Enzyme activity was evaluated in the presence of various concentrations of A-998679. The incubations consisted of the test article at varying concentrations (0–30 μM), probe substrate (concentration ~Km, see Table A2), human liver microsomal protein and 1 mM NADPH in 50 mM phosphate buffer at pH 7.4. Relative quantitation of the metabolites was obtained by LC-MS/MS using an ABSciex (Foster City, CA) API3000 or API4000 Qtrap hybrid linear ion trap mass spectrometer equipped with a TurboIonspray source using either PerkinElmer series 200 pumps or Agilent 1100 series pump with a Leap autosampler. Analytes were separated using a Phenomenex Prodigy ODS(3) 5 μm, 50 × 2.0 mm column at 50°C, eluted and detected under the specific conditions listed in Tables A3, A4, and A5. The analyte to internal standard peak area ratios were determined using Analyst 1.4 software (Applied Biosytems, Carlsbad, CA). The peak area ratios observed in the presence of test article were compared to the vehicle control in order to determine percent activity. To determine the IC50, the data were plotted as Log [dose] μM vs. % inhibition, and analyzed with a sigmoidal dose-response (variable slope) fitting equation. […]

T1 sequence (P11510 whole entry): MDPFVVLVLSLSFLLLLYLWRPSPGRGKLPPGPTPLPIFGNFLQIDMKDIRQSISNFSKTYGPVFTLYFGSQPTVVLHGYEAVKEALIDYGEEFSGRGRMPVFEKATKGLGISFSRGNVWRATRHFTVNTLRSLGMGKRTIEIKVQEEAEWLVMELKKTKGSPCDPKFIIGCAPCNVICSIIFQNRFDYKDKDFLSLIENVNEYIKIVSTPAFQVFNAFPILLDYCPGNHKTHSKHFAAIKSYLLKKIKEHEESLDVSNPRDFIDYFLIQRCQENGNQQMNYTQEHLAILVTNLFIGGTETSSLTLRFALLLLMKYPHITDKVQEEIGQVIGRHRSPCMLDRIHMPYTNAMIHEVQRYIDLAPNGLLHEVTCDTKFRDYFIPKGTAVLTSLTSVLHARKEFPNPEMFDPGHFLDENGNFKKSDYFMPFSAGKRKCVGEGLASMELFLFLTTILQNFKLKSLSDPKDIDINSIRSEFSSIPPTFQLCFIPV
T2 sequence (P04799 whole entry): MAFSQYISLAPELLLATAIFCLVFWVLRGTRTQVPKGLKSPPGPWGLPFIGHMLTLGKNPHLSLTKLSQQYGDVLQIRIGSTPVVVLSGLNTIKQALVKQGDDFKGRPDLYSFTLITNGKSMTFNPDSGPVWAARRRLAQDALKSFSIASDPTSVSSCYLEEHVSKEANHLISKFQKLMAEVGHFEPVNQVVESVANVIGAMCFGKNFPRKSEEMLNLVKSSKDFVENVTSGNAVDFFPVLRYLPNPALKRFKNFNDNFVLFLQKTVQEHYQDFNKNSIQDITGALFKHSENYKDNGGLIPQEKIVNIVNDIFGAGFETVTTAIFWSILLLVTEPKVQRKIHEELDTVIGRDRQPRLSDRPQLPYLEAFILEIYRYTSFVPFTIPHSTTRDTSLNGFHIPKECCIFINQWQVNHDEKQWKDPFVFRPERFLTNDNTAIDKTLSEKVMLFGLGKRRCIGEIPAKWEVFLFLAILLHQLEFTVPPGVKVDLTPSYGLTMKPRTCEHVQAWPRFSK
T3 sequence (P10635 whole entry): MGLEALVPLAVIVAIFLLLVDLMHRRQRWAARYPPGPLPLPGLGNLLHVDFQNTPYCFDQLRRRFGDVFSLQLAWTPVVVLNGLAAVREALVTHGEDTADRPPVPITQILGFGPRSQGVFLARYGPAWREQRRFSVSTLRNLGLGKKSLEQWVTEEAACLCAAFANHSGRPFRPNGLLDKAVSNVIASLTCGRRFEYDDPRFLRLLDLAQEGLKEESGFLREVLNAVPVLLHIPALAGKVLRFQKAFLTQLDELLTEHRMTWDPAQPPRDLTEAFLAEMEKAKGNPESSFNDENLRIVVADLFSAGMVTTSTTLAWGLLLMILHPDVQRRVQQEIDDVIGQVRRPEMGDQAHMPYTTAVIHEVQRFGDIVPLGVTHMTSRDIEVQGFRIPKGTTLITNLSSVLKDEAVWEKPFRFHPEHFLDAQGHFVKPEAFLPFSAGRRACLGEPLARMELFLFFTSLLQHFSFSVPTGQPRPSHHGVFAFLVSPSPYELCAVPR

N#Cc1cccc(-c2noc(-c3cccnc3)n2)c1 [A-998679, 3-(5-pyridin-3-yl-1,2,4-oxadiazol-3-yl) benzonitrile]
% parent remaining (rat Cyp 2C12; recombinant rat Cyp 2C12, 0.10 μM): 100%
% parent remaining (rat Cyp 2C12; recombinant rat Cyp 2C12, 0.21 μM): 100%
% parent remaining (rat Cyp1a2; recombinant rat Cyp 1A2, 0.10 μM): 0%
% parent remaining (rat Cyp1a2; recombinant rat Cyp 1A2, 0.21 μM): 0%
pIC50 (CYP2D6): < 4.52
